Like-named read-outs stand apart in the source and are kept apart here.
How the values were obtained:
[1] = J Pharm Pharmacol 1993, 45:682-686, cited from earlier work
[2] = Description: For this evaluation, excipients were added to clear glass vials at ambient temperature. […] The vials were attached to a Burrell Action Wrist Shaker (mechanical shaker) and agitated for approximately 60 hours (hrs) at ambient conditions.
After shaking for approximately 60 hrs, a first portion of the supernatant solution from each vial was submitted for chemical analysis. A second portion of the remaining dispersions was transferred to amber vials and stored at ambient conditions.

[3] = Acidified PEG 400 Solution with water [PEG 400 (59.7%) + acetic acid (30.0%) + water (10.3%)], 2 Weeks in Amber Vials
[4] = Acidified PEG 400 Solution with water [PEG 400 (59.7%) + acetic acid (30.0%) + water (10.3%)], 2 Weeks in Clear Vials
[5] = Acidified PEG 400 Solution with water [PEG 400 (59.7%) + acetic acid (30.0%) + water (10.3%)], Initial
[6] = Caprylocaproyl Polyoxyl-8 Glycerides NF (Labrasol), 2 Weeks in Amber Vials
[7] = Caprylocaproyl Polyoxyl-8 Glycerides NF (Labrasol), 2 Weeks in Clear Vials
[8] = Caprylocaproyl Polyoxyl-8 Glycerides NF (Labrasol), Initial
[9] = Medium Chain Triglycerides NF (MCT), 2 Weeks in Amber Vials
[10] = Medium Chain Triglycerides NF (MCT), 2 Weeks in Clear Vials
[11] = Medium Chain Triglycerides NF (MCT), Initial
[12] = Mono/Diglycerides of Capric/Caprylic Acid NF (Capmul MCM), 2 Weeks in Amber Vials
[13] = Mono/Diglycerides of Capric/Caprylic Acid NF (Capmul MCM), 2 Weeks in Clear Vials
[14] = Mono/Diglycerides of Capric/Caprylic Acid NF (Capmul MCM), Initial
[15] = Polyethylene Glycol 400, NF (PEG 400), 2 Weeks in Amber Vials
[16] = Polyethylene Glycol 400, NF (PEG 400), 2 Weeks in Clear Vials
[17] = Polyethylene Glycol 400, NF (PEG 400), Initial
[18] = Polyoxyl-35 Castor Oil NF (Kolliphor EL), 2 Weeks in Amber Vials
[19] = Polyoxyl-35 Castor Oil NF (Kolliphor EL), 2 Weeks in Clear Vials
[20] = Polyoxyl-35 Castor Oil NF (Kolliphor EL), Initial
[21] = Polysorbate 80 NF (Tween 80), 2 Weeks in Amber Vials
[22] = Polysorbate 80 NF (Tween 80), 2 Weeks in Clear Vials
[23] = Polysorbate 80 NF (Tween 80), Initial

## NC(N)=Nc1nc(CSCCC(N)=NS(N)(=O)=O)cs1 [famotidine]
[1]
  aqueous solubility: poor aqueous solubility
  lipophilicity: poor lipophilicity
[1]; liquid media
  stability versus pH: low stability outside a pH range of 6 to 7
[2]; [3]
  Equilibrium solubility of famotidine, mg/g Solvent: 137 mg/g
  Equilibrium solubility of famotidine, mg/g Total: 121 mg/g
[2]; [4]
  Equilibrium solubility of famotidine, mg/g Solvent: 141 mg/g
  Equilibrium solubility of famotidine, mg/g Total: 124 mg/g
[2]; [5]
  Equilibrium solubility of famotidine, mg/g Solvent: 160 mg/g
  Equilibrium solubility of famotidine, mg/g Total: 138 mg/g
[2]; [6]
  Equilibrium solubility of famotidine, mg/g Solvent: 58 mg/g
  Equilibrium solubility of famotidine, mg/g Total: 55 mg/g
[2]; [7]
  Equilibrium solubility of famotidine, mg/g Solvent: 61 mg/g
  Equilibrium solubility of famotidine, mg/g Total: 57 mg/g
[2]; [8]
  Equilibrium solubility of famotidine, mg/g Solvent: 61 mg/g
  Equilibrium solubility of famotidine, mg/g Total: 57 mg/g
[2]; Glacial acetic acid, Initial
  Equilibrium solubility of famotidine, mg/g Solvent: 318 mg/g
  Equilibrium solubility of famotidine, mg/g Total: 241 mg/g
[2]; [9]
  Equilibrium solubility of famotidine, mg/g Solvent: ND (“ND” means not detected, famotidine content was below 0.1 mg/g.)
  Equilibrium solubility of famotidine, mg/g Total: ND (“ND” means not detected, famotidine content was below 0.1 mg/g.)
[2]; [10]
  Equilibrium solubility of famotidine, mg/g Solvent: ND (“ND” means not detected, famotidine content was below 0.1 mg/g.)
  Equilibrium solubility of famotidine, mg/g Total: ND (“ND” means not detected, famotidine content was below 0.1 mg/g.)
[2]; [11]
  Equilibrium solubility of famotidine, mg/g Solvent: ND (“ND” means not detected, famotidine content was below 0.1 mg/g.)
  Equilibrium solubility of famotidine, mg/g Total: ND (“ND” means not detected, famotidine content was below 0.1 mg/g.)
[2]; [12]
  Equilibrium solubility of famotidine, mg/g Solvent: 3 mg/g
  Equilibrium solubility of famotidine, mg/g Total: 3 mg/g
[2]; [13]
  Equilibrium solubility of famotidine, mg/g Solvent: 3 mg/g
  Equilibrium solubility of famotidine, mg/g Total: 3 mg/g
[2]; [14]
  Equilibrium solubility of famotidine, mg/g Solvent: 3 mg/g
  Equilibrium solubility of famotidine, mg/g Total: 3 mg/g
[2]; [15]
  Equilibrium solubility of famotidine, mg/g Solvent: 115 mg/g
  Equilibrium solubility of famotidine, mg/g Total: 103 mg/g
[2]; [16]
  Equilibrium solubility of famotidine, mg/g Solvent: 116 mg/g
  Equilibrium solubility of famotidine, mg/g Total: 104 mg/g
[2]; [17]
  Equilibrium solubility of famotidine, mg/g Solvent: 118 mg/g
  Equilibrium solubility of famotidine, mg/g Total: 106 mg/g
[2]; [18]
  Equilibrium solubility of famotidine, mg/g Solvent: 64 mg/g
  Equilibrium solubility of famotidine, mg/g Total: 60 mg/g
[2]; [19]
  Equilibrium solubility of famotidine, mg/g Solvent: 63 mg/g
  Equilibrium solubility of famotidine, mg/g Total: 60 mg/g
[2]; [20]
  Equilibrium solubility of famotidine, mg/g Solvent: 64 mg/g
  Equilibrium solubility of famotidine, mg/g Total: 60 mg/g
[2]; [21]
  Equilibrium solubility of famotidine, mg/g Solvent: 45 mg/g
  Equilibrium solubility of famotidine, mg/g Total: 43 mg/g
[2]; [22]
  Equilibrium solubility of famotidine, mg/g Solvent: 36 mg/g
  Equilibrium solubility of famotidine, mg/g Total: 35 mg/g
[2]; [23]
  Equilibrium solubility of famotidine, mg/g Solvent: 45 mg/g
  Equilibrium solubility of famotidine, mg/g Total: 43 mg/g
[2]; Propylene Glycol USP, Initial
  Equilibrium solubility of famotidine, mg/g Solvent: 17 mg/g
  Equilibrium solubility of famotidine, mg/g Total: 17 mg/g
[2]; hydrophilic solvents (PEG 400, acidified PEG 400 solution with water, glacial acetic acid)
  solubility of famotidine (in words): High solubility

From US20250367126A1, “SOFTGEL CAPSULE COMPRISING A H2 RECEPTOR ANTAGONIST” (KENVUE BRANDS LLC, priority 2024, published 2025)
